Measured values from article PMC6463794, “Inhibition of CDC25B With WG-391D Impedes the Tumorigenesis of Ovarian Cancer” (Frontiers in Oncology, 2019).

Molecular target: T1, CDC25B (Homo sapiens, UniProt P30305)
T1 construct: recombinant CDC25B protein
T1 sequence (P30305 1-580): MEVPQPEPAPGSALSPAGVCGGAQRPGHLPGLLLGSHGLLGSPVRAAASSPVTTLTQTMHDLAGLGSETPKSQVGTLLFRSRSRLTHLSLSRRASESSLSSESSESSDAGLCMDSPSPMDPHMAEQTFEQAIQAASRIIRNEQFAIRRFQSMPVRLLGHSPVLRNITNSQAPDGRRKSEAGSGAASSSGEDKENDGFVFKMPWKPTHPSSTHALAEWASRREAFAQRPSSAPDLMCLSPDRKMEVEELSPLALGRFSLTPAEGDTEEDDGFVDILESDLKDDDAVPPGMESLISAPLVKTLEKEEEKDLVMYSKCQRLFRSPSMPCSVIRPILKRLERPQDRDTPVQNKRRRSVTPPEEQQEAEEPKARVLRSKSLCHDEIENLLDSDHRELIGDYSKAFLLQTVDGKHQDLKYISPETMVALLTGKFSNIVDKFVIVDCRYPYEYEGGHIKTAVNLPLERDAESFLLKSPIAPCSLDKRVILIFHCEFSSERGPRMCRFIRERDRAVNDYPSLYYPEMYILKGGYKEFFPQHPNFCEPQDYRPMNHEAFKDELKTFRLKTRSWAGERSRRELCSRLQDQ
Assay: fluorometric phosphatase assay (3-O-methylfluorescein phosphate) with recombinant CDC25B; positive-control inhibitor, single concentration
Assay type: biochemical
Method: fluorometric phosphatase assay (3-O-methylfluorescein phosphate) with recombinant CDC25B; positive-control inhibitor, single concentration on CDC25B | CDC25B dephosphorylation catalytic activity was determined by in vitro enzyme assay. ... PC, NSC663284 served as the positive control.

Structure (SMILES): O=C1C(Cl)=C(NCCN2CCOCC2)C(=O)c2ncccc21 [PC, NSC663284]
- fluorometric phosphatase assay (3-O-methylfluorescein phosphate) with recombinan: CDC25B dephosphorylation catalytic activity was determined by in vitro enzyme assay. ... PC, NSC663284 served as the positive control.
